Measured values published in ChEMBL document CHEMBL1123717, “Folate analogues as inhibitors of thymidylate synthase” (J Med Chem, 1987).

Columns and labels:
[1] = biological target: T1, Thymidylate synthase (Homo sapiens, UniProt P04818); test: Ability to inhibit thymidylate synthase derived from human leukemia K562 cells; assay type: cell-based
[2] = biological target: T2, Thymidylate synthase (Lactobacillus casei, UniProt P00469); test: Ability to inhibit thymidylate synthase derived from Lactobacillus casei; set-up: species or system Lacticaseibacillus casei
T2 sequence (P00469 whole entry): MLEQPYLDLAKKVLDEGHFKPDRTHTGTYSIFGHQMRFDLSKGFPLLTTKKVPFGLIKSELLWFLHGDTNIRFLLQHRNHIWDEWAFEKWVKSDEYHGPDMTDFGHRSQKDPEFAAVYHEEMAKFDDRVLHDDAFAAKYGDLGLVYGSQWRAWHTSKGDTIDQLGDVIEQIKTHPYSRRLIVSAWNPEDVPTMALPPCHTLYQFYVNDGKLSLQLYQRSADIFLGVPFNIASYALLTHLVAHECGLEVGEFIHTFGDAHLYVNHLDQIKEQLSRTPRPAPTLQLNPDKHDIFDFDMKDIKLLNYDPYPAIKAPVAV

[3] = biological target: T1, Thymidylate synthase; test: Inhibitory constant of thymidylate synthase was determined in human AML cells; assay type: cell-based
[4] = biological target: T1, Thymidylate synthase; test: Inhibitory activity against human thymidylate synthase derived either from HeLa or KB cells; assay type: cell-based

T1 sequence (P04818 whole entry): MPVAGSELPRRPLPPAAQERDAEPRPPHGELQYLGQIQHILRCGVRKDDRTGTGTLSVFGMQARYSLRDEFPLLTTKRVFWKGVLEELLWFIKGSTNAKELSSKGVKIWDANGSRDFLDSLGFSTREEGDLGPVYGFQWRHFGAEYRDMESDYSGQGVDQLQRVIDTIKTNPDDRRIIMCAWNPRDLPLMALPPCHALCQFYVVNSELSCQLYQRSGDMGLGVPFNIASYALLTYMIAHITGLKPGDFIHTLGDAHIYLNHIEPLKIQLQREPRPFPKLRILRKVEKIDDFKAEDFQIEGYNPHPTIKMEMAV

Row | Structure (SMILES) | IC50 [1] [nM] | also measured
1 | Nc1nc2ncc(CNc3ccc(C(=O)N[C@@H](CCC(=O)O)C(=O)O)cc3)nc2c(=O)[nH]1 [FOLIC ACID] | 290000 | Ki [3]: 40000 nM
2 | C#CCN(Cc1ccc2nc(N)nc(N)c2n1)c1ccc(C(=O)NC(CCC(=O)O)C(=O)O)cc1 (stereo unspecified) | 1260 | 
3 | C#CN(Cc1cnc2nc(N)nc(N)c2n1)c1ccc(C(=O)NC(CCC(=O)O)C(=O)O)cc1 (stereo unspecified) |  | IC50 [4]: 20 nM
4 | Nc1nc(O)c2nc(CNc3ccc(C(=O)N[C@@H](CCC(=O)O)C(=O)O)cc3)ccc2n1 | 55000 | 
5 | CN(Cc1cnc2nc(N)[nH]c(=O)c2n1)c1ccc(C(=O)N[C@@H](CCC(=O)O)C(=O)O)cc1 [METHOPTERINE] |  | Ki [3]: 1000 nM

Continued, in another order:

Row | IC50 [1] [nM] | Structure (SMILES) | also measured
6 | 5500 | C#CCN(Cc1cnc2nc(N)[nH]c(=O)c2n1)c1ccc(C(=O)N[C@@H](CCC(=O)O)C(=O)O)cc1 | IC50 [2]: 3900 nM
7 | 2400 | C#CCN(Cc1ccc2nc(N)[nH]c(=O)c2n1)c1ccc(C(=O)N[C@@H](CCC(=O)O)C(=O)O)cc1 | 
8 | 290 | CN(Cc1ccc2nc(N)[nH]c(=O)c2c1)c1ccc(C(=O)N[C@@H](CCC(=O)O)C(=O)O)cc1 | 
9 | 2500 | CN(Cc1ccc2nc(N)[nH]c(=O)c2n1)c1ccc(C(=O)N[C@@H](CCC(=O)O)C(=O)O)cc1 | 
